Molecular target: deoxyribonucleic acid (derived from salmon sperm) with a length of 500 to 1000 bp
Experiment: DNA binding assay of fluorescent dyes (fluorescence titration, fit to McGhee-von Hippel equation)
Conditions: TE buffer (pH: 8.0); dye 200, 400, 800 nM; DNA 0.5-12 µM; excitation 475 nm, emission 520 nm; read-out: Dissociation constant Kd
Text: The obtained results were fitted to the McGhee-von Hippel equation (Equation 1) to determine the dissociation constant (Kd) and the number of base pairs at the dye-binding site (N).

CCCN(CCCN(C)C)c1cc(/C=C2/Sc3ccccc3N2C)c2ccccc2[n+]1-c1ccccc1
Kd: 1000 ± 90 nM

Source: patent EP4674849A1, “FLUORESCENT DYE FOR DETECTING NUCLEIC ACID” (Keio University, priority 2023, dated 2024)
